PubChem BioAssay (NCI)
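Interpolation was linear, between the two tested concentrations surrounding the appropriate level; five concentrations were tested over 48 hours in 96-well plates. At the GI50, growth is halved. TGI is the concentration that stops growth completely.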

Columns and labels:
Experiment in all cases: DTP human tumour cell line panel, 48 h
M14 melanoma = test system: M14 melanoma
RPMI-8226 leukemia = test system: RPMI-8226 leukemia
NCI-H522 lung = test system: NCI-H522 lung
NCI-H226 lung = test system: NCI-H226 lung
ACHN renal = test system: ACHN renal
HL-60(TB) leukemia = test system: HL-60(TB) leukemia
A549 NSCLC = test system: A549 NSCLC
HCC-2998 colon = test system: HCC-2998 colon
MOLT-4 leukemia = test system: MOLT-4 leukemia
SW-620 colon = test system: SW-620 colon
SK-MEL-28 melanoma = test system: SK-MEL-28 melanoma
UACC-257 melanoma = test system: UACC-257 melanoma
DU-145 prostate = test system: DU-145 prostate
CCRF-CEM leukemia = test system: CCRF-CEM leukemia
MDA-MB-435 = test system: MDA-MB-435
SK-MEL-5 melanoma = test system: SK-MEL-5 melanoma
OVCAR-8 ovarian = test system: OVCAR-8 ovarian
KM12 colon = test system: KM12 colon
K-562 leukemia = test system: K-562 leukemia
TK-10 renal = test system: TK-10 renal
SK-MEL-2 melanoma = test system: SK-MEL-2 melanoma
SF-539 CNS = test system: SF-539 CNS
PC-3 prostate = test system: PC-3 prostate
SR leukemia = test system: SR leukemia
BT-549 breast = test system: BT-549 breast
MCF7 breast = test system: MCF7 breast
NCI-H23 lung = test system: NCI-H23 lung
OVCAR-5 ovarian = test system: OVCAR-5 ovarian
HCT-15 colon = test system: HCT-15 colon
OVCAR-3 ovarian = test system: OVCAR-3 ovarian
SK-OV-3 ovarian = test system: SK-OV-3 ovarian
IGROV1 ovarian = test system: IGROV1 ovarian
COLO 205 colon = test system: COLO 205 colon
SN12C renal = test system: SN12C renal
MDA-MB-231 breast = test system: MDA-MB-231 breast
HT29 colon = test system: HT29 colon
A498 renal = test system: A498 renal
MALME-3M melanoma = test system: MALME-3M melanoma
SF-295 CNS = test system: SF-295 CNS
T-47D breast = test system: T-47D breast
LOX IMVI melanoma = test system: LOX IMVI melanoma
NCI-H460 lung = test system: NCI-H460 lung
HCT-116 colon = test system: HCT-116 colon
SNB-19 CNS = test system: SNB-19 CNS
UO-31 renal = test system: UO-31 renal
RXF 393 renal = test system: RXF 393 renal
NCI/ADR-RES ovarian = test system: NCI/ADR-RES ovarian
UACC-62 melanoma = test system: UACC-62 melanoma
HS 578T breast = test system: HS 578T breast
CAKI-1 renal = test system: CAKI-1 renal
EKVX NSCLC = test system: EKVX NSCLC
HOP-62 NSCLC = test system: HOP-62 NSCLC
U251 CNS = test system: U251 CNS
HOP-92 NSCLC = test system: HOP-92 NSCLC
786-0 renal = test system: 786-0 renal
SNB-75 CNS = test system: SNB-75 CNS
SF-268 CNS = test system: SF-268 CNS
OVCAR-4 ovarian = test system: OVCAR-4 ovarian

## CCc1cccc2c3c(sc12)C(c1ccc(Cl)cc1)C(C#N)=C(N)O3 (stereo unspecified)
M14 melanoma
  GI50: 0.472 µM
  TGI: 4.79 µM
RPMI-8226 leukemia
  GI50: 0.442 µM
  TGI: 7.95 µM
NCI-H522 lung
  GI50: 0.338 µM
  TGI: 4.39 µM
NCI-H226 lung
  GI50: 0.881 µM
  TGI: 9.43 µM
ACHN renal
  GI50: 0.622 µM
  TGI: 14.3 µM
HL-60(TB) leukemia
  GI50: 0.355 µM
  TGI: 9.48 µM
A549 NSCLC
  GI50: 0.736 µM
  TGI: 12.9 µM
HCC-2998 colon
  GI50: 1.32 µM
  TGI: 7.42 µM
MOLT-4 leukemia
  GI50: 0.59 µM
  TGI: 27.6 µM
SW-620 colon
  GI50: 0.45 µM
  TGI: 12.2 µM
SK-MEL-28 melanoma
  GI50: 2.06 µM
  TGI: 19.3 µM
UACC-257 melanoma
  GI50: 8.64 µM
  TGI: 33.1 µM
DU-145 prostate
  GI50: 0.596 µM
  TGI: 11.4 µM
CCRF-CEM leukemia
  GI50: 0.391 µM
  TGI: 21.4 µM
MDA-MB-435
  GI50: 0.196 µM
  TGI: 0.463 µM
SK-MEL-5 melanoma
  GI50: 0.898 µM
  TGI: 12 µM
OVCAR-8 ovarian
  GI50: 0.869 µM
  TGI: 11 µM
KM12 colon
  GI50: 0.447 µM
  TGI: 13.1 µM
K-562 leukemia
  GI50: 0.391 µM
  TGI: > 100 µM
TK-10 renal
  GI50: 3.18 µM
  TGI: 15.4 µM
SK-MEL-2 melanoma
  GI50: 1.25 µM
  TGI: 19.2 µM
SF-539 CNS
  GI50: 0.36 µM
  TGI: 1.56 µM
PC-3 prostate
  GI50: 0.39 µM
  TGI: 10.7 µM
SR leukemia
  GI50: 0.414 µM
  TGI: 31.8 µM
BT-549 breast
  GI50: 0.983 µM
  TGI: 15.6 µM
MCF7 breast
  GI50: 0.334 µM
  TGI: 4.66 µM
NCI-H23 lung
  GI50: 0.692 µM
  TGI: 5.18 µM
OVCAR-5 ovarian
  GI50: 1.42 µM
  TGI: 8.93 µM
HCT-15 colon
  GI50: 0.418 µM
  TGI: 9.59 µM
OVCAR-3 ovarian
  GI50: 0.384 µM
  TGI: 2.67 µM
SK-OV-3 ovarian
  GI50: 1.14 µM
  TGI: 29.8 µM
IGROV1 ovarian
  GI50: 0.53 µM
  TGI: 11.1 µM
COLO 205 colon
  GI50: 0.81 µM
  TGI: 6.27 µM
SN12C renal
  GI50: 0.805 µM
  TGI: 12.5 µM
MDA-MB-231 breast
  GI50: 1.56 µM
  TGI: 7.72 µM
HT29 colon
  GI50: 0.457 µM
  TGI: 3.61 µM
A498 renal
  GI50: 0.224 µM
  TGI: 1.52 µM
MALME-3M melanoma
  GI50: 0.712 µM
  TGI: 9.9 µM
SF-295 CNS
  GI50: 0.306 µM
  TGI: 1.17 µM
T-47D breast
  GI50: 0.493 µM
  TGI: 16.1 µM
LOX IMVI melanoma
  GI50: 0.545 µM
  TGI: 4.22 µM
NCI-H460 lung
  GI50: 0.414 µM
  TGI: 3.01 µM
HCT-116 colon
  GI50: 0.408 µM
  TGI: 9.59 µM
SNB-19 CNS
  GI50: 0.499 µM
  TGI: 12.1 µM
UO-31 renal
  GI50: 0.691 µM
  TGI: 13.4 µM
RXF 393 renal
  GI50: 0.258 µM
  TGI: 0.976 µM
NCI/ADR-RES ovarian
  GI50: 0.349 µM
  TGI: 2.24 µM
UACC-62 melanoma
  GI50: 0.351 µM
  TGI: 5.27 µM
HS 578T breast
  GI50: 0.363 µM
  TGI: 2.6 µM
CAKI-1 renal
  GI50: 0.403 µM
  TGI: 14 µM
EKVX NSCLC
  GI50: 1.08 µM
  TGI: 14.7 µM
HOP-62 NSCLC
  GI50: 0.623 µM
  TGI: 11.1 µM
U251 CNS
  GI50: 0.496 µM
  TGI: 5.26 µM
HOP-92 NSCLC
  GI50: 0.753 µM
  TGI: 6.92 µM
786-0 renal
  GI50: 0.94 µM
  TGI: 14.7 µM
SNB-75 CNS
  GI50: 0.195 µM
  TGI: 0.718 µM
SF-268 CNS
  GI50: 0.933 µM
  TGI: 22.2 µM
OVCAR-4 ovarian
  GI50: 1.7 µM
  TGI: 17.3 µM
